Assay: Inhibition of estrogen receptor alpha-mediated human MCF7 cell growth inhibition

IC50	Compound
64.9 µM	COc1ccc2c(c1)CC[C@@H]1[C@@H]2CC[C@]2(C)[C@@H](OC(C)=O)CC[C@@H]12
64.9 µM	COc1cc(C(=O)CCc2cc3c(cc2OC)CC[C@@H]2[C@@H]3CC[C@]3(C)[C@@H](O)CC[C@@H]23)ccc1O
64.9 µM	COc1cc2c(cc1C=O)[C@H]1CC[C@]3(C)[C@@H](OC(C)=O)CC[C@H]3[C@@H]1CC2

— BindingDB's records for doi:10.1016/j.ejmech.2013.06.048 (University of Siena, 2013)
